Measured values reported in patent publication US20260001928A1 (CORTERIA PHARMACEUTICALS, priority 2022, published 2026).
*1 amine or outer side, *2 acyl side, *3 side chain or, on linkers, in order; H or OH if unused. Where a SMILES comes first, the peptide text is derived from it. Side-chain parts run from the residue outwards. [ ]: non-standard residue; d: D form. The star is where a group is joined. C20 diacid = O=C(O)CCCCCCCCCCCCCCCCCCC(=O)*; C18 diacid = O=C(O)CCCCCCCCCCCCCCCCC(=O)*; C16 diacid = O=C(O)CCCCCCCCCCCCCCC(=O)*; γGlu = O=C(O)[C@H](CCC(=O)[*:2])N[*:1]; NMeI = CC[C@H](C)[C@H](NC)C(=O)O; Decanoyl = CCCCCCCCCC(=O)*; Pentanoyl = CCCCC(=O)*; AEEA = NCCOCCOCC(=O)O; Aib = CC(C)(N)C(=O)O

What was measured:
human CRF2a receptor = target: T1, human CRF2a receptor (Homo sapiens, UniProt Q13324); assay: Activity at human CRF2a receptor, cAMP functional assay in TeloHEAC cells; assay type: cell-based; settings: TeloHEAC cells stably expressing human CRF2a receptor, relative to urocortin 2 (100 nM = 100%)
T1 construct: expressed in transfected cells; host or cells: TeloHEAC cells
T1 sequence (Q13324 1-411): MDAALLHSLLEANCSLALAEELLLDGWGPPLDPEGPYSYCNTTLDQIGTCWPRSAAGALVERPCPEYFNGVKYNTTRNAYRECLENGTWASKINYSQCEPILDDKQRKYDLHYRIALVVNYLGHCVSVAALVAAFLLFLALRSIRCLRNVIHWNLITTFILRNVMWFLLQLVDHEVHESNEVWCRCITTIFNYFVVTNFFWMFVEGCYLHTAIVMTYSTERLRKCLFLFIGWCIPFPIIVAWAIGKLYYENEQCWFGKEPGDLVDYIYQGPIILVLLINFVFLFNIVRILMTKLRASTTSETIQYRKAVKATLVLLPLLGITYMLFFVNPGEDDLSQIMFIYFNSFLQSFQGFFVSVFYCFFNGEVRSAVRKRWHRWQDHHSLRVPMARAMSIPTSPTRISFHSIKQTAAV
Procedure, shortened: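 TeloHEAC cells stably expressing human CRF2a (10000 cells/well, suspended in HBSS/20 mM HEPES with 2 mM IBMX) were exposed to compounds for 30 min at 37 °C. cAMP was read as the 665/620 nm fluorescence ratio after 1 h at room temperature. EC50 was derived relative to 100 nM urocortin 2, set as 100%.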

Sprague Dawley rats = assay: Effect on systolic blood pressure, telemetry in Sprague Dawley rats; assay type: in vivo, rat; settings: 0.1 mg/kg SC; for Systolic blood pressure (Mean) % change from baseline, 8 h / Systolic blood pressure (Mean) % change from baseline, 12 h / Systolic blood pressure (Mean) % change from baseline, 24 h: n=2; for Duration of action: last time point with an effect on BP still observed
Experimental: The effect of the compounds on systolic blood pressure was determined in telemetry studies in Sprague Dawley rats at a dosage of 0.1 mg/kg SC.
The rats were previously implanted with a telemetry device (DSI, Saint-Paul, USA, HD-S10, HD-S11 or HD S21) and allowed to recover for a minimum period of 2 weeks before treatment with vehicle or the different peptides. Blood pressure (BP) was recorded through a catheter inserted into the abdominal aorta. The device body was placed in the abdomen. The animals were allowed to recover from surgery for at least 10 days before the first administration of test drug or vehicle.
The chronically instrumented rats of the telemetry studies were individually housed immediately after surgery and then housed in pairs with a non-instrumented companion after recovery.
Systolic blood pressure was recorded for one hour before treatment (basal period). Thereafter, the subcutaneous administration of the test compound or its vehicle was performed, under continuous recording of the signal up to 48 hours, analysed and expressed as % change from baseline.
Representative data are presented in Table 13 below, in which “Duration of action” indicates the last time point for which an effect on BP was still observed (n=2 animals/peptide)

CFR1R receptor = target: T2, CFR1R receptor (Homo sapiens, UniProt P34998); assay: Activity at anti-target CFR1R receptor, cAMP assay in CRF1R-overexpression CHO-K1 cells; assay type: cell-based; settings: 100% = Sauvagine at 100 nM; for EC50: cAMP
T2 construct: host or cells: CHO-K1 (clone 2)
T2 sequence (P34998 24-415): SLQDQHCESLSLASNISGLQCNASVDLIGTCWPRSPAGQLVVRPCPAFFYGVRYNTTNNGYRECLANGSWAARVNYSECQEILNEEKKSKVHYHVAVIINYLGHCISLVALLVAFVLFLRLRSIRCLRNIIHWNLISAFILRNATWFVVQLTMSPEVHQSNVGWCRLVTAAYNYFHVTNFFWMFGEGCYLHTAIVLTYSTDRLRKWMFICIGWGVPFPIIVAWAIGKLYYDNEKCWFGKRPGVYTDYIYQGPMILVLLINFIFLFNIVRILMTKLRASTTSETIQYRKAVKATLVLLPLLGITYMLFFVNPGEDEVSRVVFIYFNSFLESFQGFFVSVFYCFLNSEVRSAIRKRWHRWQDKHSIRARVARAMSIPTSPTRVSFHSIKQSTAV
Procedure, shortened: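 Clone 2; cryopreserved stocks (10% DMSO); 4000 cells/well final; 100% activation = Sauvagine 100 nM; otherwise as TeloHAEC protocol.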

SMILES | EC50 (human CRF2a receptor) [nM] | Systolic blood pressure (Mean) % change from baseline, 8 h (Sprague Dawley rats) [%] | Systolic blood pressure (Mean) % change from baseline, 12 h (Sprague Dawley rats) [%] | Systolic blood pressure (Mean) % change from baseline, 24 h (Sprague Dawley rats) [%] | Duration of action (Sprague Dawley rats) [h] | Emax (% I) (CFR1R receptor) | EC50 (CFR1R receptor) [nM]
CCCCC(=O)N[C@H](C(=O)N[C@@H](CC(C)C)C(=O)N[C@@H](CO)C(=O)N[C@@H](CC(C)C)C(=O)N[C@@H](CC(=O)O)C(=O)N[C@@H](C(=O)N1CCC[C@H]1C(=O)N[C@H](C(=O)N[C@@H](CCCCN)C(=O)N[C@@H](CC(C)C)C(=O)N[C@@H](CCCCNC(=O)CC[C@H](NC(=O)CCCCCCCCCCCCCCCCC(=O)O)C(=O)O)C(=O)N[C@@H](CCCCN)C(=O)N[C@H](C(=O)N[C@@H](CC(C)C)C(=O)N[C@@H](CC(C)C)C(=O)N[C@@H](CCC(=O)O)C(=O)N[C@@H](CCC(N)=O)C(=O)N[C@@H](CCC(=O)O)C(=O)N[C@@H](CCCCN)C(=O)N[C@@H](CCC(N)=O)C(=O)N[C@@H](CCCCN)C(=O)NC(C)(C)C(=O)N[C@@H](CCC(N)=O)C(=O)N[C@@H](CCCNC(=N)N)C(=O)N[C@@H](CCC(=O)O)C(=O)N[C@@H](CCC(N)=O)C(=O)N[C@@H](C)C(=O)N[C@@H](CCC(=O)O)C(=O)N[C@H](C(=O)N[C@@H](CC(N)=O)C(=O)NC(C)(C)C(=O)N[C@@H](CCC(N)=O)C(=O)N[C@H](C(=O)N[C@@H](CC(C)C)C(=O)N[C@@H](C)C(=O)N[C@@H](CCC(N)=O)C(=O)N[C@H](C(N)=O)C(C)C)[C@@H](C)CC)[C@@H](C)O)[C@@H](C)CC)[C@@H](C)CC)C(C)C)C(C)C [compound 194] (Pentanoyl-VLSLD[dV]PIKLK([γGlu-C18 diacid])KILLEQEKQK[Aib]QREQAETN[Aib]QILAQV-NH2) | 0.44 | −13 | −3 | 18 | 19 | 10 | > 250
CC[C@H](C)[C@H](NC)C(=O)N[C@H](C(=O)N[C@@H](CC(C)C)C(=O)N[C@@H](CO)C(=O)N[C@@H](CC(C)C)C(=O)N[C@@H](CC(=O)O)C(=O)N[C@@H](C(=O)N1CCC[C@H]1C(=O)N[C@H](C(=O)NCC(=O)N[C@@H](CC(C)C)C(=O)N[C@@H](CCCCNC(=O)CC[C@H](NC(=O)CCCCCCCCCCCCCCCCCCC(=O)O)C(=O)O)C(=O)N[C@@H](CCCCN)C(=O)N[C@H](C(=O)N[C@@H](CC(C)C)C(=O)N[C@@H](CC(C)C)C(=O)N[C@@H](CCC(=O)O)C(=O)N[C@@H](CCC(N)=O)C(=O)N[C@@H](CCC(=O)O)C(=O)N[C@@H](CCCCN)C(=O)N[C@@H](CCC(N)=O)C(=O)N[C@@H](CCCCN)C(=O)N[C@@H](CCCCN)C(=O)N[C@@H](CCC(N)=O)C(=O)N[C@@H](CCCNC(=N)N)C(=O)N[C@@H](CCC(=O)O)C(=O)N[C@@H](CCC(N)=O)C(=O)N[C@@H](C)C(=O)N[C@@H](CCC(=O)O)C(=O)N[C@H](C(=O)N[C@@H](CC(N)=O)C(=O)NC(C)(C)C(=O)N[C@@H](CCC(N)=O)C(=O)N[C@H](C(=O)N[C@@H](CC(C)C)C(=O)N[C@@H](C)C(=O)N[C@@H](CCC(N)=O)C(=O)N[C@H](C(N)=O)C(C)C)[C@@H](C)CC)[C@@H](C)O)[C@@H](C)CC)[C@@H](C)CC)C(C)C)C(C)C [compound 229] (H-[NMeI]VLSLD[dV]PIGLK([γGlu-C20 diacid])KILLEQEKQKKQREQAETN[Aib]QILAQV-NH2) | 0.11 | −12 | −9 | −5 | >24 | 43 | 
CC[C@H](C)[C@H](NC(C)=O)C(=O)N[C@H](C(=O)N[C@@H](CC(C)C)C(=O)N[C@@H](CO)C(=O)N[C@@H](CC(C)C)C(=O)N[C@@H](CC(=O)O)C(=O)N[C@@H](C(=O)N1CCC[C@H]1C(=O)N[C@H](C(=O)N[C@@H](CCCCN)C(=O)N[C@@H](CC(C)C)C(=O)N[C@@H](CCCCNC(=O)COCCOCCNC(=O)CC[C@H](NC(=O)CCCCCCCCCCCCCCCCCCC(=O)O)C(=O)O)C(=O)N[C@@H](CCCCN)C(=O)N[C@H](C(=O)N[C@@H](CC(C)C)C(=O)N[C@@H](CC(C)C)C(=O)N[C@@H](CCC(=O)O)C(=O)N[C@@H](CCC(N)=O)C(=O)N[C@@H](CCC(=O)O)C(=O)N[C@@H](CCCCN)C(=O)N[C@@H](CCC(N)=O)C(=O)N[C@@H](CCCCN)C(=O)N[C@@H](CCCCN)C(=O)N[C@@H](CCC(N)=O)C(=O)N[C@@H](CCCNC(=N)N)C(=O)N[C@@H](CCC(=O)O)C(=O)N[C@@H](CCC(N)=O)C(=O)N[C@@H](C)C(=O)N[C@@H](CCC(=O)O)C(=O)N[C@H](C(=O)N[C@@H](CC(N)=O)C(=O)NC(C)(C)C(=O)N[C@@H](CCC(N)=O)C(=O)N[C@H](C(=O)N[C@@H](CC(C)C)C(=O)N[C@@H](C)C(=O)N[C@@H](CCC(N)=O)C(=O)N[C@H](C(N)=O)C(C)C)[C@@H](C)CC)[C@@H](C)O)[C@@H](C)CC)[C@@H](C)CC)C(C)C)C(C)C [compound 230] (Ac-IVLSLD[dV]PIKLK([AEEA-γGlu-C20 diacid])KILLEQEKQKKQREQAETN[Aib]QILAQV-NH2) | 0.16 | −15 | −16 | 3 | 23 | 30 | > 250
CCCCCCCCCC(=O)N[C@H](C(=O)N[C@@H](CC(C)C)C(=O)N[C@@H](CO)C(=O)N[C@@H](CC(C)C)C(=O)N[C@@H](CC(=O)O)C(=O)N[C@@H](C(=O)N1CCC[C@H]1C(=O)N[C@H](C(=O)N[C@@H](CCCCN)C(=O)N[C@@H](CC(C)C)C(=O)N[C@@H](CCCCNC(=O)CC[C@H](NC(=O)CCCCCCCCCCCCCCC(=O)O)C(=O)O)C(=O)N[C@@H](CCCCN)C(=O)N[C@H](C(=O)N[C@@H](CC(C)C)C(=O)N[C@@H](CC(C)C)C(=O)N[C@@H](CCC(=O)O)C(=O)N[C@@H](CCC(N)=O)C(=O)N[C@@H](CCC(=O)O)C(=O)N[C@@H](CCCCN)C(=O)N[C@@H](CCC(N)=O)C(=O)N[C@@H](CCCCN)C(=O)N[C@@H](CCCCN)C(=O)N[C@@H](CCC(N)=O)C(=O)N[C@@H](CCCNC(=N)N)C(=O)N[C@@H](CCC(=O)O)C(=O)N[C@@H](CCC(N)=O)C(=O)N[C@@H](C)C(=O)N[C@@H](CCC(=O)O)C(=O)N[C@H](C(=O)N[C@@H](CC(N)=O)C(=O)NC(C)(C)C(=O)N[C@@H](CCC(N)=O)C(=O)N[C@H](C(=O)N[C@@H](CC(C)C)C(=O)N[C@@H](C)C(=O)N[C@@H](CCC(N)=O)C(=O)N[C@H](C(N)=O)C(C)C)[C@@H](C)CC)[C@@H](C)O)[C@@H](C)CC)[C@@H](C)CC)C(C)C)C(C)C [compound 158] (Decanoyl-VLSLD[dV]PIKLK([γGlu-C16 diacid])KILLEQEKQKKQREQAETN[Aib]QILAQV-NH2) | 0.04 | −11 | −7 | 3 | 23 | 54 | 
